Experimental data reported in USRE44971E1, “Method for selection of transformed cells” (priority 2006, dated 2014).

Legend:
[1] = tested on: non-transgenic soybean plants; assay: Greenhouse post-V3 spray of auxin-like herbicides, visual injury, non-transgenic line; type: in vivo
Description: (§1) An analysis was carried out to determine whether soybean plants having DMO-encoding polynucleotide could deactivate other auxin-like herbicides in addition to dicamba. This was carried out by applying various concentrations of commercially available formulations of other auxin-like herbicides such as 2,4-D (Helena, Collierville, Tenn.), MCPA (Agriliance, St. Paul, Minn.), triclopyr (GARLON 3A; Dow Elanco, Indianapolis, Ind.), clopyralid (STINGER; Dow Elanco, Indianapolis, Ind.), picloram (TORDON 22K; Dow Elanco, Indianapolis, Ind.), or Banvel or Clarity (BASF, Raleigh, N.C.) to DMO containing plant tissues or plants.
(§2) Transgenic soybean plants were obtained by Agrobacterium-mediated transformation of soybean explants with a DMO-encoding polynucleotide as described above for the events designated Events 1-4. A non-transgenic line was used as a control. Non-transgenic and transgenic soybean seeds were planted into 3,5-inch square plastic pots containing Redi-earth™ (Scotts-Sierra Horticultural Products Co., Marysville, Ohio). The pots were placed on capillary matting in 35 inch×60 inch fiberglass watering trays for overhead and/or sub-irrigation for the duration of the test period so as to maintain optimum soil moisture for plant growth. The pots were fertilized with Osmocote (14-14-14 slow release; Scotts-Sierra Horticultural Products Co., Marysville, Ohio) at the rate of 100 gm/cu.ft. to sustain plant growth for the duration of greenhouse trials. The plants were grown in greenhouses at 27°/21° C. day/night temperature, with relative humidity between 25%-75% to simulate warm season growing conditions of late spring. A 14 h minimum photoperiod was provided with supplemental light at about 600 μE as needed.
(§3) All herbicide applications were made with the track sprayer using a Teejet 9501E flat fan nozzle (Spraying Systems Co, Wheaton, Ill.) with air pressure set at a minimum of 24 psi (165 kpa). The spray nozzle was kept at a height of about 16 inches above the top of plant material for spraying. The spray volume was 10 gallons per acre or 93 liters per hectare. Applications were made when plants had reached V-3 stage.
(§4) All treated plants in greenhouse trials were visually assessed at about 4, 14, 18, and 21 days after treatment (DAT) for injury on a scale of 0 to 100 percent relative to untreated control plants, with zero representing “no” injury and 100% representing “complete” injury or death. Data were collected using a palm top computer and analyzed using standard statistical methods.

[2] = tested on: transgenic soybean plants with DMO-encoding polynucleotide, Event 1; assay: Greenhouse post-V3 spray of auxin-like herbicides, visual injury, transgenic Event 1; type: in vivo
Description: as §1, §2, §3, §4

[3] = tested on: transgenic soybean plants with DMO-encoding polynucleotide, Event 2; assay: Greenhouse post-V3 spray of auxin-like herbicides, visual injury, transgenic Event 2; type: in vivo
Description: as §1, §2, §3, §4

[4] = tested on: transgenic soybean plants with DMO-encoding polynucleotide, Event 3; assay: Greenhouse post-V3 spray of auxin-like herbicides, visual injury, transgenic Event 3; type: in vivo
Description: as §1, §2, §3, §4

[5] = tested on: transgenic soybean plants with DMO-encoding polynucleotide, Event 4; assay: Greenhouse post-V3 spray of auxin-like herbicides, visual injury, transgenic Event 4; type: in vivo
Description: as §1, §2, §3, §4

[6] = tested on: soybean explants inoculated with Agrobacterium harboring pMON73691 (DMO and GFP genes); assay: Selection of pMON73691-inoculated soybean explants with 2,4-D or dicamba in liquid medium, GFP+ buds; type: cell-based; conditions: for # Explants w/GFP + buds/young shoots at 48DAI: 375 explants inoculated, pMON73691
Description: Freshly isolated soybean explants (mature embryo axes without cotyledons) were inoculated with Agrobacterium strain ABI harboring pMON73691 (containing DMO and GFP genes). After 3-d co-culture with Agrobacterium at 23° C. and a photoperiod of 16-h light and 8-h dark, the explants were cultured in liquid delay medium which contained modified woody plant medium supplemented with 5 mg/l BAP, 200 mg/l carbenicillin, 200 mg/l cefotaxime and 100 mg/l ticarcillin. The explants were in the delay medium for 4 days. They were then transferred to liquid selection medium in PLANTCONs. The selection medium was the same as the delay medium except of addition of various levels of 2,4-D (0.01, 0.1, 1.0 or 2.0 mg/L) or 0.01 mg/L dicamba as shown in Table 9 below. Each PLANTCON contained 60 ml of the selection medium and one piece of foam sponge with 5 slits. Twenty-five explants were evenly inserted into the slits. The cultures were maintained at 28° C. and a photoperiod of 16-h light and 8-h dark, and were examined periodically under a […] equipped for detecting GFP expressing tissues.

[7] = tested on: transgenic soybean plants having DMO-encoding polynucleotide; assay: Greenhouse injury trial, overall statements for transgenic soybean; type: in vivo; conditions: for tolerance of transgenic soybean relative to the non-transgenic line: greenhouse trial, post-V3 application; for assessment of application rate: 280 g ae/ha, transgenic soybean
Description: as §1, §2, §3, §4

Row | Compound | % injury relative to un-treated controls ([1]; 280 g ae/ha, 21 DAT) [%] | % injury relative to un-treated controls ([1]; 561 g ae/ha, 21 DAT) [%] | % injury relative to un-treated controls ([1]; 1120 g ae/ha, 21 DAT) [%] | % injury relative to un-treated controls ([2]; 280 g ae/ha, 21 DAT) [%] | % injury relative to un-treated controls ([1]; 280 g ae/ha, 14 DAT) [%] | % injury relative to un-treated controls ([1]; 561 g ae/ha, 14 DAT) [%] | % injury relative to un-treated controls ([1]; 1120 g ae/ha, 14 DAT) [%] | % injury relative to un-treated controls ([2]; 280 g ae/ha, 14 DAT) [%] | % injury relative to un-treated controls ([2]; 561 g ae/ha, 14 DAT) [%] | % injury relative to un-treated controls ([2]; 1120 g ae/ha, 14 DAT) [%] | % injury relative to un-treated controls ([3]; 280 g ae/ha, 14 DAT) [%] | % injury relative to un-treated controls ([3]; 561 g ae/ha, 14 DAT) [%] | % injury relative to un-treated controls ([3]; 1120 g ae/ha, 14 DAT) [%] | % injury relative to un-treated controls ([4]; 280 g ae/ha, 14 DAT) [%] | % injury relative to un-treated controls ([4]; 561 g ae/ha, 14 DAT) [%] | % injury relative to un-treated controls ([4]; 1120 g ae/ha, 14 DAT) [%] | % injury relative to un-treated controls ([5]; 280 g ae/ha, 14 DAT) [%] | % injury relative to un-treated controls ([5]; 561 g ae/ha, 14 DAT) [%] | % injury relative to un-treated controls ([5]; 1120 g ae/ha, 14 DAT) [%] | assessment of application rate [7] | also measured
1 | O=C(O)COc1ccc(Cl)cc1Cl [2,4-D, (2,4-dichlorophenoxy)acetic acid] | 86.8 | 100.0 | 100.0 | 58.3 |  |  |  |  |  |  |  |  |  |  |  |  |  |  |  |  | % injury relative to un-treated controls ([2]; 561 g ae/ha, 21 DAT): 75.0%; % injury relative to un-treated controls ([2]; 1120 g ae/ha, 21 DAT): 100.0%; % injury relative to un-treated controls ([3]; 280 g ae/ha, 21 DAT): 64.2%; % injury relative to un-treated controls ([3]; 561 g ae/ha, 21 DAT): 94.7%; % injury relative to un-treated controls ([3]; 1120 g ae/ha, 21 DAT): 100.0%; % injury relative to un-treated controls ([4]; 280 g ae/ha, 21 DAT): 40.0%; % injury relative to un-treated controls ([4]; 561 g ae/ha, 21 DAT): 85.0%; % injury relative to un-treated controls ([4]; 1120 g ae/ha, 21 DAT): 100.0%; % injury relative to un-treated controls ([5]; 280 g ae/ha, 21 DAT): 45.8%; % injury relative to un-treated controls ([5]; 561 g ae/ha, 21 DAT): 84.2%; % injury relative to un-treated controls ([5]; 1120 g ae/ha, 21 DAT): 100.0%; explant response observed ([6]; 0.01 or 0.1 mg/L in selection medium): extensive shoot growth; explant response observed ([6]; 1 or 2 mg/L in selection medium): Extensive callus development; # Explants w/GFP + buds/young shoots at 48DAI ([6]; selective agent 0.01 mg/L): 33; # Explants w/GFP + buds/young shoots at 48DAI ([6]; selective agent 0.1 mg/L): 19; # Explants w/GFP + buds/young shoots at 48DAI ([6]; selective agent 1 mg/L): 4; # Explants w/GFP + buds/young shoots at 48DAI ([6]; selective agent 2 mg/L): 0; tolerance of transgenic soybean relative to the non-transgenic line [7]: tolerance
2 | O=C(O)c1nc(Cl)ccc1Cl [Clopyralid, 3,6-dichloro-2-pyridinecarboxylic acid] |  |  |  |  | 99.3 | 100.0 | 100.0 | 99.2 | 100.0 | 100.0 | 98.2 | 99.7 | 100.0 | 99.3 | 100.0 | 100.0 | 99.7 | 100.0 | 100.0 | too stringent | 
3 | Cc1cc(Cl)ccc1OCC(=O)O [MCPA, (4-chloro-2-methylphenoxy)acetic acid] | 93.0 | 98.3 | 100.0 | 72.5 |  |  |  |  |  |  |  |  |  |  |  |  |  |  |  |  | % injury relative to un-treated controls ([2]; 561 g ae/ha, 21 DAT): 99.3%; % injury relative to un-treated controls ([2]; 1120 g ae/ha, 21 DAT): 100.0%; % injury relative to un-treated controls ([3]; 280 g ae/ha, 21 DAT): 55.0%; % injury relative to un-treated controls ([3]; 561 g ae/ha, 21 DAT): 95.0%; % injury relative to un-treated controls ([3]; 1120 g ae/ha, 21 DAT): 99.7%; % injury relative to un-treated controls ([4]; 280 g ae/ha, 21 DAT): 55.0%; % injury relative to un-treated controls ([4]; 561 g ae/ha, 21 DAT): 95.8%; % injury relative to un-treated controls ([4]; 1120 g ae/ha, 21 DAT): 100.0%; % injury relative to un-treated controls ([5]; 280 g ae/ha, 21 DAT): 88.3%; % injury relative to un-treated controls ([5]; 561 g ae/ha, 21 DAT): 98.8%; % injury relative to un-treated controls ([5]; 1120 g ae/ha, 21 DAT): 100.0%; tolerance of transgenic soybean relative to the non-transgenic line [7]: tolerance
4 | Nc1c(Cl)c(Cl)nc(C(=O)O)c1Cl [Picloram, 4-amino-3,5,6-trichloro-2-pyridinecarboxylic acid] |  |  |  |  | 99.3 | 100.0 | 100.0 | 99.7 | 100.0 | 100.0 | 99.3 | 100.0 | 100.0 | 99.3 | 99.7 | 100.0 | 99.3 | 100.0 | 100.0 | too stringent | 
5 | (2,4,5-trichlorophenoxy)acetic acid [Triclopyr] |  |  |  |  | 86.7 | 97.3 | 98.7 | 88.3 | 95.7 | 99.3 | 86.7 | 98.7 | 99.3 | 86.7 | 94.0 | 96.3 | 90.8 | 98.0 | 99.2 | too stringent | 
